Structures are written as SMILES.

In this experiment the test system is Endogenous Huntingtin Protein (HTT). The experiment can be described thus: Endogenous Huntingtin Protein Assay (ELISA-based MSD electrochemiluminescence). The format is cell-based. The note with it: Table 1. The gist of the method: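 MSD electrochemiluminescence sandwich ELISA for endogenous HTT: sample lysates captured overnight at 4 °C on MW1 (expanded polyglutamine) or MAB2166 antibody. Detection used rabbit monoclonal #5656S, then goat anti-rabbit SULFO-TAG antibody, each 1 h at room temperature.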
As a reminder, the IC50 is the concentration that inhibits the measured activity by half. A lower IC50 goes with greater potency in that assay. Molecule `CCc1nc(C)cn2nc(-c3cc(=O)n4cc(N5CCC(N(C)C)CC5)ccc4n3)cc12` [compound 550, 7-[4-(dimethylamino)piperidin-1-yl]-2-(4-ethyl-6-methylpyrazolo[1,5-a]pyrazin-2-yl)-4H-pyrido[1,2-a]pyrimidin-4-one] displayed an IC50 of 3 to 33 µM. For `C[C@@H]1CN(c2ccc3nc(-c4ccc5c(cnn5C)c4)cc(=O)n3c2)C[C@H](C)N1` [compound 552, 7-[(3R,5S)-3,5-dimethylpiperazin-1-yl]-2-(1-methyl-1H-indazol-5-yl)-4H-pyrido[1,2-a]pyrimidin-4-one] the value was 3 to 33 µM; for `C[C@H]1CN(c2ccc3nc(-c4ccc5c(cnn5C)c4)cc(=O)n3c2)CCN1` [compound 553, 2-(1-methyl-1H-indazol-5-yl)-7-[(3S)-3-methylpiperazin-1-yl]-4H-pyrido[1,2-a]pyrimidin-4-one], 3 to 33 µM; for `Cc1cn2ccc(-c3cc(=O)n4cc(N5CCNCC5)ccc4n3)cc2n1` [compound 555, 2-(2-methylimidazo[1,2-a]pyridin-7-yl)-7-(piperazin-1-yl)-4H-pyrido[1,2-a]pyrimidin-4-one], 3 to 33 µM. Take `Cc1cn2ccc(-c3cc(=O)n4cc(C5CCNCC5)ccc4n3)cc2n1` [compound 556, 2-(2-methylimidazo[1,2-a]pyridin-7-yl)-7-(piperidin-4-yl)-4H-pyrido[1,2-a]pyrimidin-4-one]: the half-inhibitory concentration (IC50) lay within 3 to 33 µM. For `Cc1cn2ccc(-c3cc(=O)n4cc(N5CCN(C)CC5)ccc4n3)cc2n1` [compound 557, 2-(2-methylimidazo[1,2-a]pyridin-7-yl)-7-(4-methylpiperazin-1-yl)-4H-pyrido[1,2-a]pyrimidin-4-one] the value was 3 to 33 µM. For `Cn1cc2cc(-c3cc(=O)n4cc(C5CCNCC5)ncc4n3)ccc2n1` [compound 566, 2-(2-methyl-2H-indazol-5-yl)-7-(piperidin-4-yl)-4H-pyrazino[1,2-a]pyrimidin-4-one] the value was 0.1 to 0.5 µM. For `CN1CCC(c2cn3c(=O)cc(-c4ccc5nn(C)cc5c4)nc3cn2)CC1` [compound 567, 2-(2-methyl-2H-indazol-5-yl)-7-(1-methylpiperidin-4-yl)-4H-pyrazino[1,2-a]pyrimidin-4-one] the value was 3 to 33 µM; for `CCN1CCC(c2cn3c(=O)cc(-c4ccc5nn(C)cc5c4)nc3cn2)CC1` [compound 568, 7-(1-ethylpiperidin-4-yl)-2-(2-methyl-2H-indazol-5-yl)-4H-pyrazino[1,2-a]pyrimidin-4-one], 1 to 3 µM. As to `Cn1cc2cc(-c3cc(=O)n4cc(C5CCN(CCO)CC5)ncc4n3)ccc2n1` [compound 569, 7-[1-(2-hydroxyethyl)piperidin-4-yl]-2-(2-methyl-2H-indazol-5-yl)-4H-pyrazino[1,2-a]pyrimidin-4-one], the IC50 lay in the range of 1 to 3 µM.

Consider `CN1CCC(c2ccc3nc(-c4ccc5nn(C)cc5c4)cc(=O)n3c2)CC1` [compound 578, 2-(2-methyl-2H-indazol-5-yl)-7-(1-methylpiperidin-4-yl)-4H-pyrido[1,2-a]pyrimidin-4-one], for which the IC50 lay in the range of 3 to 33 µM. Turning to `Cc1cn2cc(-c3cc(=O)n4cc(C5CCN(C)CC5)ncc4n3)ccc2n1` [compound 579, 2-(2-methylimidazo[1,2-a]pyridin-6-yl)-7-(1-methylpiperidin-4-yl)-4H-pyrazino[1,2-a]pyrimidin-4-one], the concentration for half-maximal inhibition (IC50) lay in the range of 3 to 33 µM.

The molecule `CCN1CCC(c2cn3c(=O)cc(-c4ccc5nc(C)cn5c4)nc3cn2)CC1` [compound 580, 7-(1-ethylpiperidin-4-yl)-2-(2-methylimidazo[1,2-a]pyridin-6-yl)-4H-pyrazino[1,2-a]pyrimidin-4-one] returned an IC50 of 3 to 33 µM. For `Cc1cn2cc(-c3cc(=O)n4cc(C5CCN(CCO)CC5)ncc4n3)ccc2n1` [compound 581, 7-[1-(2-hydroxyethyl)piperidin-4-yl]-2-(2-methylimidazo[1,2-a]pyridin-6-yl)-4H-pyrazino[1,2-a]pyrimidin-4-one] the value was 1 to 3 µM. Then `Cc1cn2nc(-c3cc(=O)n4cc(N5CCC(N(C)CCO)CC5)cc(C)c4n3)cc2c(C)n1` [compound 582, 2-(4,6-dimethylpyrazolo[1,5-a]pyrazin-2-yl)-7-{4-[(2-hydroxyethyl)(methyl)amino]piperidin-1-yl}-9-methyl-4H-pyrido[1,2-a]pyrimidin-4-one], with 3 to 33 µM; and `Cc1cn2nc(-c3cc(=O)n4cc(N5CCC(C)(N)CC5)ccc4n3)cc2c(C)n1` [compound 584, 7-(4-amino-4-methylpiperidin-1-yl)-2-(4,6-dimethylpyrazolo[1,5-a]pyrazin-2-yl)-4H-pyrido[1,2-a]pyrimidin-4-one], with 3 to 33 µM; and `Cc1cn2cc(-c3cc(=O)n4cc(C5CCNCC5)ncc4n3)ccc2n1` [compound 585, 2-(2-methylimidazo[1,2-a]pyridin-6-yl)-7-(piperidin-4-yl)-4H-pyrazino[1,2-a]pyrimidin-4-one], with 0.5 to 1 µM. Molecule `Cn1cc2cc(-c3cc(=O)n4cc(N5CCNCC5)ncc4n3)ccc2n1` [compound 586, 2-(2-methyl-2H-indazol-5-yl)-7-(piperazin-1-yl)-4H-pyrazino[1,2-a]pyrimidin-4-one] displayed an IC50 of 3 to 33 µM. The molecule `Cc1cn2cc(-c3cc(=O)n4cc(C5CCNCC5)ncc4n3)cc(Cl)c2n1` [compound 587, 2-(8-chloro-2-methylimidazo[1,2-a]pyridin-6-yl)-7-(piperidin-4-yl)-4H-pyrazino[1,2-a]pyrimidin-4-one] had an IC50 of 0.1 to 0.5 µM. Then `Cc1cn2cc(-c3cc(=O)n4cc(C5CCNCC5)ncc4n3)cc(C)c2n1` [compound 588, 2-(2,8-dimethylimidazo[1,2-a]pyridin-6-yl)-7-(piperidin-4-yl)-4H-pyrazino[1,2-a]pyrimidin-4-one], with 0.5 to 1 µM; and `CN1CCN(c2cn3c(=O)cc(-c4ccc5nn(C)cc5c4)nc3cn2)CC1` [compound 589, 2-(2-methyl-2H-indazol-5-yl)-7-(4-methylpiperazin-1-yl)-4H-pyrazino[1,2-a]pyrimidin-4-one], with 3 to 33 µM; and `CCN1CCN(c2cn3c(=O)cc(-c4ccc5nn(C)cc5c4)nc3cn2)CC1` [compound 590, 7-(4-ethylpiperazin-1-yl)-2-(2-methyl-2H-indazol-5-yl)-4H-pyrazino[1,2-a]pyrimidin-4-one], with 3 to 33 µM. In the case of `Cn1cc2cc(-c3cc(=O)n4cc(N5CCN(CCO)CC5)ncc4n3)ccc2n1` [compound 591, 7-[4-(2-hydroxyethyl)piperazin-1-yl]-2-(2-methyl-2H-indazol-5-yl)-4H-pyrazino[1,2-a]pyrimidin-4-one], the IC50 lay in the range of 3 to 33 µM. For `Cc1cn2cc(-c3cc(=O)n4cc(C5CCN(C)CC5)ncc4n3)cc(C)c2n1` [compound 592, 2-(2,8-dimethylimidazo[1,2-a]pyridin-6-yl)-7-(1-methylpiperidin-4-yl)-4H-pyrazino[1,2-a]pyrimidin-4-one] the value was 3 to 33 µM; for `CCN1CCC(c2cn3c(=O)cc(-c4cc(C)c5nc(C)cn5c4)nc3cn2)CC1` [compound 593, 2-(2,8-dimethylimidazo[1,2-a]pyridin-6-yl)-7-(1-ethylpiperidin-4-yl)-4H-pyrazino[1,2-a]pyrimidin-4-one], 1 to 3 µM.

Turning to `Cc1cn2cc(-c3cc(=O)n4cc(C5CCN(CCO)CC5)ncc4n3)cc(C)c2n1` [compound 594, 2-(2,8-dimethylimidazo[1,2-a]pyridin-6-yl)-7-[1-(2-hydroxyethyl)piperidin-4-yl]-4H-pyrazino[1,2-a]pyrimidin-4-one], the IC50 was in the range of 1 to 3 µM. For `Cc1cn2cc(-c3cc(=O)n4cc(C5CCN(C(C)C)CC5)ncc4n3)cc(Cl)c2n1` [compound 595, 2-(8-chloro-2-methylimidazo[1,2-a]pyridin-6-yl)-7-[1-(propan-2-yl)piperidin-4-yl]-4H-pyrazino[1,2-a]pyrimidin-4-one] the value was 1 to 3 µM; for `Cc1cn2cc(-c3cc(=O)n4cc(C5CCN(CCO)CC5)ncc4n3)cc(Cl)c2n1` [compound 599, 2-(8-chloro-2-methylimidazo[1,2-a]pyridin-6-yl)-7-[1-(2-hydroxyethyl)piperidin-4-yl]-4H-pyrazino[1,2-a]pyrimidin-4-one], 1 to 3 µM; for `Cn1cc2cc(-c3cc(=O)n4cc(C5CCNCC5)ccc4n3)ccc2n1` [compound 606, 2-(2-methyl-2H-indazol-5-yl)-7-(piperidin-4-yl)-4H-pyrido[1,2-a]pyrimidin-4-one], 3 to 33 µM. The molecule `CC(C)N1CCC(c2ccc3nc(-c4ccc5nn(C)cc5c4)cc(=O)n3c2)CC1` [compound 608, 2-(2-methyl-2H-indazol-5-yl)-7-[1-(propan-2-yl)piperidin-4-yl]-4H-pyrido[1,2-a]pyrimidin-4-one] yielded an IC50 of 0.5 to 1 µM.

For the molecule `Cc1cn2nc(-c3cc(=O)n4cc(N5CCC(NCCO)CC5)cc(C)c4n3)cc2c(C)n1` [compound 609, 2-(4,6-dimethylpyrazolo[1,5-a]pyrazin-2-yl)-7-{4-[(2-hydroxyethyl)amino]piperidin-1-yl}-9-methyl-4H-pyrido[1,2-a]pyrimidin-4-one], the IC50 was 3 to 33 µM. With `CCN1CCC(c2ccc3nc(-c4ccc5nn(C)cc5c4)cc(=O)n3c2)CC1` [compound 612, 7-(1-ethylpiperidin-4-yl)-2-(2-methyl-2H-indazol-5-yl)-4H-pyrido[1,2-a]pyrimidin-4-one], the half-maximal inhibitory concentration (IC50) lay in the range of 1 to 3 µM. Then `Cn1cc2cc(-c3cc(=O)n4cc(C5CCN(CCO)CC5)ccc4n3)ccc2n1` [compound 613, 7-[1-(2-hydroxyethyl)piperidin-4-yl]-2-(2-methyl-2H-indazol-5-yl)-4H-pyrido[1,2-a]pyrimidin-4-one], with 1 to 3 µM; and `Cc1cn2nc(-c3cc(=O)n4cc(N5CCC6C(CCN6CCO)C5)ccc4n3)cc2c(C)n1` (centres unmarked) [compound 624, 2-(4,6-dimethylpyrazolo[1,5-a]pyrazin-2-yl)-7-[1-(2-hydroxyethyl)octahydro-5H-pyrrolo[3,2-c]pyridin-5-yl]-4H-pyrido[1,2-a]pyrimidin-4-one], with 0.5 to 1 µM. `Cc1cn2cc(-c3cc(=O)n4cc(C5CCN(C(C)C)CC5)ncc4n3)ccc2n1` [compound 627, 2-(2-methylimidazo[1,2-a]pyridin-6-yl)-7-[1-(propan-2-yl)piperidin-4-yl]-4H-pyrazino[1,2-a]pyrimidin-4-one] displayed a half-inhibitory concentration (IC50) of 1 to 3 µM.

The record behind these values is patent US11382918B2, “Methods for treating Huntington's Disease” (PTC Therapeutics, Inc., priority 2017, dated 2022).
